The structures appear in SMILES notation. The source made the active and inactive calls.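 How the source made its calls: active means compounds whose fitted half-maximal concentration in the cell-protection dose series is at or below a set limit; inactive means the rest.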 A value given as a limit tells only on which side of the number the result lay.

For this test, the system named is H9c2 cardiomyocytes, 2-deoxyglucose stress, ATP luminescence, 2 h. The test can be described thus: protection of cardiomyocytes from 2-deoxyglucose injury, dose response, cell-based, 2-deoxyglucose stress, uHTS hits (AID 588780).
For the molecule `COCCn1cnc2c(c1=O)c1nc3ccccc3nc1n2/N=C/c1cccc(OC)c1`, the IC50 (commonly the point on the concentration scale where inhibition reaches its midpoint) was 38 µM (inactive). In the case of `Cc1ccc(C=NNc2nc3c([nH]2)c(=O)n(C)c(=O)n3C)cc1` it was 11.8 µM; in that of `COc1ccc(-c2cc(NC=O)c3ncc(-c4cccc(C(C)=O)c4)n3c2)cc1`, > 79 µM (inactive). In the case of `CC(Oc1cccc(Cl)c1)C(=O)Nc1nc(-c2ccccn2)cs1` (stereo not drawn) it was 44.4 µM (inactive); in that of `CCn1c(SCC(=O)Nc2ccccc2N2CCCCC2)nc2c1c(=O)n(C)c(=O)n2C`, 12.6 µM. In the case of `CN(C(=O)CCc1nc2ccccc2c(=O)[nH]1)C1CCS(=O)(=O)C1` (stereo not drawn), the IC50 is > 79 µM (inactive). On to `O=P(Nc1ccccc1)(Oc1ccccc1)Oc1ccccc1`, for which the IC50 was > 79 µM (inactive). Take `Cn1c(C(=O)Nc2ccc3c(c2)OCCO3)cc2c(=O)n(C)c3ccccc3c21`: the IC50 was > 79 µM (inactive).

For the molecule `CC(C)CC(=O)Nc1ccc(C(=O)COC(=O)Cc2n[nH]c(=O)c3ccccc23)cc1`, the IC50 was > 79 µM (inactive). For `COc1cccc(C(c2nnnn2Cc2ccccc2)N2CCN(C3CCCC3)CC2)c1OC` (stereo not drawn), the IC50 is 35.5 µM (inactive).

On to `O=C(COc1ccccc1[N+](=O)[O-])Nc1ccc(N2CCN(C(=O)c3cccs3)CC2)cc1`, for which the IC50 is 8.51 µM. For the molecule `COc1cc(-c2cc(NC(C)=O)c3ncc(-c4ccc(C(C)=O)cc4)n3c2)cc(OC)c1OC`, the IC50 was > 79 µM (inactive). Turning to `COC(=O)Cc1n[nH]c(=O)c2ccccc12`, the IC50 was > 79 µM (inactive). As for `CC1Cc2ccccc2N1C(=O)COC(=O)c1n[nH]c(=O)c2ccccc12` (stereo not drawn), the IC50 is > 79 µM (inactive). On to `O=C1NC(Cc2ccc(O)cc2)c2nc3ccc(F)cc3c(=O)n2-c2cc3ccccc3cc21` (stereo not drawn), for which the IC50 was 12.4 µM. With `O=C(NC(O)C(=O)c1cccs1)c1cccnc1` (stereo not drawn), the IC50 was > 79 µM (inactive). Consider `O=C(Nc1ccc2oc(-c3ccccc3F)nc2c1)c1ccc([N+](=O)[O-])o1`, for which the IC50 is > 79 µM (inactive).

With `CCOC(=O)c1cccc(NC(=O)CSc2nc3ccccc3c(=O)n2CCOC)c1`, the IC50 was 34.1 µM (inactive). As for `COc1cc(-c2cc(C(=O)N3CCN(c4ccccn4)CC3)c3ccccc3n2)cc(OC)c1OC`, the figure is 14.4 µM; as for `CCOc1cc(/C=C/c2ccc3cccc([N+](=O)[O-])c3n2)ccc1OCC(=O)N(C)C`, 12.5 µM; as for `CCOC(=O)Cc1csc(SCc2cc(=O)oc3cc(O)ccc23)n1`, 51.9 µM (inactive). As for `Cc1c(NC(=O)Cn2[nH]c(=O)c3ccccc3c2=O)c(=O)n(-c2ccccc2)n1C`, the figure is > 79 µM (inactive); as for `COc1cc(C(=O)Nc2cccc(-c3nnc(-c4ccco4)o3)c2)ccc1OC(C)=O`, > 79 µM (inactive); as for `Cc1cc(NC(=O)COC(=O)Cn2[nH]c(=O)c3ccccc3c2=O)c([N+](=O)[O-])cc1C`, > 79 µM (inactive).

With `Cc1ccc2sc(NNC(=O)c3ccc4c(c3)OCCO4)nc2c1C`, the IC50 is > 79 µM (inactive). In the case of `NC(=O)c1cc2ccccc2o/c1=N\NC(=O)c1ccc(F)cc1` it was 8.81 µM.

For the molecule `CN(CC(=O)Nc1ccc(F)cc1)C(=O)CCc1nc2ccccc2c(=O)[nH]1`, the IC50 is > 79 µM (inactive).

Take `O=C(NCc1ccco1)C(c1ccccc1)N(C(=O)Cc1cccs1)c1ccccc1F` (stereo not drawn): the IC50 was > 79 µM (inactive). Regarding `Cc1cccc(-n2[nH]c(C)c(C=Nc3ccc4[nH]c(=O)[nH]c4c3)c2=O)c1`, the IC50 was > 79 µM (inactive). As for `O=C(N/N=C\c1ccccn1)C1COc2cc3ccccc3cc2O1` (stereo not drawn), the figure is 8.87 µM; as for `O=C(c1cc2nc(-c3ccccc3)cc(-c3ccccc3)n2n1)N1CCN(C(=O)c2ccco2)CC1`, 9.32 µM; as for `CC/C(C)=N\N=C\c1c(O)n(CC)c2cc(C3=NNC(=O)CC3)ccc12`, 32.4 µM (inactive). As for `Cn1c(C(=O)NCCc2ccsc2)cc2c(=O)n(C)c3ccccc3c21`, the figure is > 79 µM (inactive). As for `CCN(CC)c1ccc(C2C(C(=O)OC(C)C)C(=O)CC(C)(O)C2C(=O)OC(C)C)cc1` (stereo not drawn), the figure is 18.2 µM; as for `O=C(COC(=O)c1ccc([N+](=O)[O-])s1)Nc1ccc(Cl)cn1`, > 79 µM (inactive).

In the case of `C[C@H](CO)N1C[C@H](C)[C@@H](CN(C)S(=O)(=O)c2ccc(F)cc2)Oc2ccc(NC(=O)Nc3ccc4c(c3)OCO4)cc2C1=O`, the IC50 was 36 µM (inactive). In the case of `O=c1[nH]nc(CNc2ccc(O)cc2)c2ccccc12` it was > 79 µM (inactive). As for `O=C(CN1CCN(c2ccccc2F)CC1)c1ccc(O)c(O)c1`, the figure is > 79 µM (inactive); as for `COC(=O)[C@@]12CCCCN1[C@H](c1ccc(-c3cc(C(C)=O)cs3)cc1)[C@H]1C(=O)N(C)C(=O)[C@H]12`, > 79 µM (inactive).

As to `O=C(COc1cccc(NC(=O)c2cccc([N+](=O)[O-])c2)c1)c1ccc(F)cc1`, the IC50 was > 79 µM (inactive). As for `Cc1sc2nc(SCC(=O)N(C)C)[nH]c(=O)c2c1C`, the figure is > 79 µM (inactive); as for `COc1ccc2[nH]c(=O)c(CN(Cc3cccnc3)S(=O)(=O)c3ccccc3F)cc2c1`, > 79 µM (inactive). For `Cc1ccc(-c2nn3c(C)nnc3c3ccccc23)cc1S(=O)(=O)NC(C)c1ccccc1` (stereo not drawn), the IC50 is > 79 µM (inactive). As for `O=c1[nH]c(CN2CCCC2)nc2sc3c(c12)CCC3`, the figure is > 79 µM (inactive). Regarding `COc1cc(/C=N/NC(=O)c2ccccc2)ccc1OS(=O)(=O)c1ccccc1`, the IC50 was 9.14 µM. Take `Brc1cc2c(cc1/C=N/Nc1nc(N3CCCC3)nc(N3CCOCC3)n1)OCO2`: the IC50 was > 79 µM (inactive). In the case of `COc1cc(C(=O)NNC(=O)c2ccc3ccccc3n2)cc(OC)c1OC` it was > 79 µM (inactive). For the molecule `O=C(COC(=O)CCc1nc2ccccc2c(=O)[nH]1)NC(c1ccccc1)c1ccccc1`, the IC50 is > 79 µM (inactive). In the case of `COc1ccc(CCCNC(=O)C2(C)Cc3c(-c4ccc(NC(C)=O)cc4)ccnc3O2)cc1` (stereo not drawn) it was > 79 µM (inactive); in that of `Cc1ccc2[nH]c(=O)c(CN(CCCN3CCOCC3)C(=O)Nc3ccc(Cl)cc3)cc2c1`, > 79 µM (inactive).

With `Cc1cc(C)c(OCC(=O)Nc2nc(-c3ccccn3)cs2)c(C)c1`, the IC50 was > 79 µM (inactive). On to `CNC(=O)/C(C#N)=C/c1c(N(Cc2ccccc2)Cc2ccccc2)nc2ccccn2c1=O`, for which the IC50 is 16 µM. In the case of `CCCCn1nc(NC(=O)c2cccs2)c2cc3cc(OC)ccc3nc21`, the IC50 was > 79 µM (inactive). `CCc1nc2ccc(C(=O)Nc3cccc(OCC(=O)N(C)C)c3)cn2c1N(C)Cc1cc2ccccc2s1`: the IC50 is 11.8 µM.

In the case of `Cc1nn(C)cc1C(C(=O)NC1CCCCC1)N(C(=O)Cc1cccs1)c1ccc(Cl)cc1` (stereo not drawn), the IC50 is 27.5 µM. As for `O=C(CCc1nc2ccccc2c(=O)[nH]1)Nc1ccc(F)c([N+](=O)[O-])c1`, the figure is 6.81 µM.

`CCOC(=O)COc1cc(OCC(=O)OCC)c2c3c(c(=O)oc2c1)CCCC3`: the IC50 was 16.4 µM. In the case of `CCOC(=O)CNS(=O)(=O)c1cc(-c2n[nH]c(=O)c3ccccc23)ccc1C` it was > 79 µM (inactive); in that of `c1cc2[nH]snc2c2nc(C3CC3)nc12`, 10.2 µM.

For the molecule `COc1ccc(C(=O)NN/C=C/C(=O)c2ccc(Br)cc2)cc1`, the IC50 was > 79 µM (inactive). In the case of `O=C(NCCc1ccccc1Cl)c1ccc2nc3ccccc3c(=O)n2c1` it was 16.8 µM; in that of `O=C(Nc1nc(-c2ccc(S(=O)(=O)N3CCCC3)cc2)cs1)C1COc2ccccc2O1` (stereo not drawn), > 79 µM (inactive).

Consider `Cc1ccc(NCc2ccc(O)c3ncccc23)cc1C`, for which the IC50 was > 79 µM (inactive). Take `C=CCOC(=O)C1=C[C@H](c2cn(C(C)=O)c3ccccc23)C[C@H](OCc2ccc(CO)cc2)O1`: the IC50 was 17.9 µM. Turning to `c1ccc(-c2cn3c(n2)CCc2ccc4cccnc4c2-3)cc1`, the IC50 was > 79 µM (inactive). Take `O=C(NNC(=O)C(c1ccccc1)c1ccccc1)c1ccccn1`: the IC50 was > 79 µM (inactive). As for `Cn1c2ccc(F)cc2c2nnc(NN)nc21`, the figure is > 79 µM (inactive); as for `Cc1ccc(CNC(=O)CCc2nc3ccccc3c(=O)[nH]2)cc1`, 13.9 µM; as for `O=C1c2ccccc2NC(c2ccc(-c3cccc([N+](=O)[O-])c3)o2)N1O` (stereo not drawn), 28.4 µM. As for `O=C(OCc1nnc(-c2ccccc2)o1)c1ccc([N+](=O)[O-])s1`, the figure is 24.8 µM.

For `COc1ccc(NC(=O)CN(C)C(=O)Cc2n[nH]c(=O)c3ccccc23)cc1`, the IC50 was > 79 µM (inactive). `CCCC(=O)Nc1cc(C)c2c(=O)oc3ccccc3c2n1`: the IC50 is > 79 µM (inactive).

Regarding `Cc1ccc(S(=O)(=O)N2CCN(C(=O)c3cc(=O)[nH]c4ccccc34)CC2)c(C)c1`, the IC50 was 16.8 µM.
